# Numbered stars: 1 amine (or outer) side, 2 acyl side, 3 side chain; on linkers, the order of the positions; unused ones are H or OH. Bridge positions count the residues as written; N and C are the ends. Square brackets hold non-standard residues; d marks the D form. Peptide text beside a SMILES is read from it. * marks the point of attachment. hPhe(3-Cl-4-CF3) = N[C@@H](CCc1ccc(C(F)(F)F)c(Cl)c1)C(=O)O; hPhe(3-F,4-CF3) = N[C@@H](CCc1ccc(C(F)(F)F)c(F)c1)C(=O)O; Phe(4-CF3) = N[C@@H](Cc1ccc(C(F)(F)F)cc1)C(=O)O; NMePhe(4-Cl) = CN[C@@H](Cc1ccc(Cl)cc1)C(=O)O; NMePhe(4-Me) = CN[C@@H](Cc1ccc(C)cc1)C(=O)O; NMedβ3hAla = C[C@H](CC(=O)[*:2])N(C)[*:1]; Oic = O=C(O)[C@@H]1C[C@@H]2CCCC[C@@H]2N1; Phe(4-Cl) = N[C@@H](Cc1ccc(Cl)cc1)C(=O)O; NMeGly(cPent) = CN[C@H](C(=O)O)C1CCCC1; Phe(3-I) = N[C@@H](Cc1cccc(I)c1)C(=O)O; Met(O2) = CS(=O)(=O)CC[C@H](N)C(=O)O; NMeAla(cPr) = CN[C@@H](CC1CC1)C(=O)O; Phe(2-Me) = Cc1ccccc1C[C@H](N)C(=O)O; NMeCha = CN[C@@H](CC1CCCCC1)C(=O)O; NMehLeu = CN[C@@H](CCC(C)C)C(=O)O; Gly(N-(CH2)2OEt) = CCOCCNCC(=O)O; NMeChg = CN[C@H](C(=O)O)C1CCCCC1; NMeD = CN[C@@H](CC(=O)O)C(=O)O; NMeL = CN[C@@H](CC(C)C)C(=O)O; Chg = N[C@H](C(=O)O)C1CCCCC1; NMePra = C#CC[C@H](NC)C(=O)O; NMeV = CN[C@H](C(=O)O)C(C)C; d(β3hA) = C[C@@H](N)CC(=O)O; dIva = CC[C@@](C)(N)C(=O)O; N(iPr)Gly = CC(C)NCC(=O)O; NMeA = CN[C@@H](C)C(=O)O; NMeAib = CNC(C)(C)C(=O)O; Piperidide = C1CCN(*)CC1; Pyrrolidide = C1CCN(*)C1; Ac5c = NC1(C(=O)O)CCCC1; Aze = O=C(O)[C@@H]1CCN1; Ac3c = NC1(C(=O)O)CC1; Sar = CNCC(=O)O
# Test system: Human pancreatic cancer cell line AsPC-1 (G12D mutation Kras)
# Assay: AsPC-1 cell growth inhibition (AsPC-1 CGI)
# Type: cell-based
# Settings: read-out: AsPC-1 cell growth inhibition, 50% growth inhibitory concentration (IC50 value); 96 hours, CellTiter-Glo, values classified in ranges
# Experimental: Test compounds were serially dilated with dimethyl sulfoxide, and 200 nL was then dispensed to a U-bottom 96-well plate using Labcyte Echo. […] The cell suspension was dispensed to a. plate containing a test compound at 100 μL per well and incubated at 37° C. in a 5% carbon dioxide gas incubator. 96 hours later, 80 μL of CellTiter-Glo (Promega) was added to each well and fluorescence was measured.
row,SMILES,IC50
1,"CC[C@H](C)[C@@H]1NC(=O)[C@H](C)N(C)C(=O)C[C@@H](C(=O)N2CCCCC2)N(C)C(=O)[C@H](C(C)C)N(C)C(=O)C2(CCCC2)NC(=O)[C@@H]2CCCN2C(=O)[C@H](CCc2ccc(C(F)(F)F)c(F)c2)NC(=O)CN(C)C(=O)[C@H](CC2CCCCC2)N(C)C(=O)CN(C)C(=O)CN(C)C1=O [Compound 266] ([NMeA]I[Sar][Sar][NMeCha][Sar][hPhe(3-F,4-CF3)]P[Ac5c][NMeV][NMeD]-Piperidide; lactam N-11)",> 0.5 µM
2,CC[C@H](C)[C@@H]1NC(=O)[C@H](CC(C)C)N(C)C(=O)C[C@@H](C)N(C)C(=O)[C@H](C(C)C)N(C)C(=O)C2(CC2)NC(=O)[C@@H]2CCCN2C(=O)[C@H](CCc2ccc(C(F)(F)F)c(Cl)c2)NC(=O)CN(C)C(=O)[C@H](CC2CCCCC2)N(C)C(=O)CN(C)C(=O)CN(C)C1=O [Compound 268] (cyclo([Ac3c][NMeV][NMedβ3hAla][NMeL]I[Sar][Sar][NMeCha][Sar][hPhe(3-Cl-4-CF3)]P)),> 0.5 µM
3,CC[C@H](C)[C@@H]1NC(=O)[C@H](CC(C)C)N(C)C(=O)C[C@@H](C)NC(=O)[C@H](C(C)C)N(C)C(=O)[C@@](C)(CC)NC(=O)[C@@H]2CCCN2C(=O)[C@H](CCc2ccc(C(F)(F)F)c(Cl)c2)NC(=O)CN(C)C(=O)[C@H](CC2CCCCC2)N(C)C(=O)CN(C)C(=O)CN(C)C1=O [Compound 275] (cyclo(I[Sar][Sar][NMeCha][Sar][hPhe(3-Cl-4-CF3)]P[dIva][NMeV][d(β3hA)][NMeL])),> 0.5 µM
4,CC[C@H](C)[C@@H]1NC(=O)[C@H](CC(C)C)N(C)C(=O)C[C@@H](C(=O)N2CCCCC2)N(C)C(=O)[C@H](C2CCCCC2)N(C)C(=O)C2(CCCC2)NC(=O)[C@@H](C)NC(=O)[C@H](CCc2ccc(C(F)(F)F)c(Cl)c2)NC(=O)CN(C)C(=O)[C@H](CC2CCCCC2)N(C)C(=O)CN(C)C(=O)CN(C)C1=O [Compound 277] ([NMeL]I[Sar][Sar][NMeCha][Sar][hPhe(3-Cl-4-CF3)][dA][Ac5c][NMeChg][NMeD]-Piperidide; lactam N-11),> 0.5 µM
5,CC(C)C[C@H]1C(=O)N[C@@H](C2CCCCC2)C(=O)N(C)CC(=O)N(C)CC(=O)N(C)[C@@H](CC2CCCCC2)C(=O)N(C)CC(=O)N[C@@H](CCc2ccc(C(F)(F)F)c(Cl)c2)C(=O)N2CCC[C@H]2C(=O)NC2(CCCC2)C(=O)N(C)[C@@H](C(C)C)C(=O)N(C)[C@H](C(=O)N2CCCCC2)CC(=O)N1C [Compound 281] ([NMeL][Chg][Sar][Sar][NMeCha][Sar][hPhe(3-Cl-4-CF3)]P[Ac5c][NMeV][NMeD]-Piperidide; lactam N-11),> 0.5 µM
6,CC(C)C[C@H]1C(=O)N[C@@H](CCS(C)(=O)=O)C(=O)N(C)CC(=O)N(C)CC(=O)N(C)[C@@H](CC2CCCCC2)C(=O)N(C)CC(=O)N[C@@H](CCc2ccc(C(F)(F)F)c(Cl)c2)C(=O)N2CCC[C@H]2C(=O)NC2(CCCC2)C(=O)N(C)[C@@H](C2CCCCC2)C(=O)N(C)[C@H](C(=O)N2CCCCC2)CC(=O)N1C [Compound 283] ([NMeL][Met(O2)][Sar][Sar][NMeCha][Sar][hPhe(3-Cl-4-CF3)]P[Ac5c][NMeChg][NMeD]-Piperidide; lactam N-11),> 0.5 µM
7,C#CC[C@H]1C(=O)N(C)[C@H](C(=O)N2CCCCC2)CC(=O)N(C)[C@@H](CC(C)C)C(=O)N[C@@H]([C@@H](C)CC)C(=O)N(C)CC(=O)N(C)CC(=O)N(C)[C@@H](CC2CCCCC2)C(=O)N(C)CC(=O)N[C@@H](CCc2ccc(C(F)(F)F)c(Cl)c2)C(=O)N2CCC[C@H]2C(=O)NC2(CCCC2)C(=O)N1C [Compound 284] ([NMeL]I[Sar][Sar][NMeCha][Sar][hPhe(3-Cl-4-CF3)]P[Ac5c][NMePra][NMeD]-Piperidide; lactam N-11),> 0.5 µM
8,CC[C@H](C)[C@@H]1NC(=O)[C@H](CC(C)C)N(C)C(=O)C[C@@H](C(=O)N2CCCCC2)N(C)C(=O)[C@H](CC(C)C)NC(=O)C(C)(C)N(C)C(=O)[C@H](CC(C)C)NC(=O)[C@H](Cc2cccc(I)c2)NC(=O)CN(C)C(=O)[C@H](Cc2ccc(Cl)cc2)N(C)C(=O)CN(C)C(=O)CN(C)C1=O [Compound 295] ([NMeL]I[Sar][Sar][NMePhe(4-Cl)][Sar][Phe(3-I)]L[NMeAib]L[NMeD]-Piperidide; lactam N-11),> 0.5 µM
9,CC[C@H](C)[C@@H]1NC(=O)[C@H](CC(C)C)N(C)C(=O)C[C@@H](C(=O)N2CCCCC2)N(C)C(=O)[C@H](C2CCCCC2)N(C)C(=O)C2(CCCC2)NC(=O)[C@@H]2C[C@@H]3CCCC[C@@H]3N2C(=O)[C@H](CCc2ccc(C(F)(F)F)c(Cl)c2)NC(=O)CN(C)C(=O)[C@H](CC2CCCCC2)N(C)C(=O)CN(C)C(=O)CN(C)C1=O [Compound 297] ([NMeL]I[Sar][Sar][NMeCha][Sar][hPhe(3-Cl-4-CF3)][Oic][Ac5c][NMeChg][NMeD]-Piperidide; lactam N-11),> 0.5 µM
10,"CC[C@H](C)[C@@H]1NC(=O)[C@H](CC(C)C)N(C)C(=O)C[C@@H](C(=O)N2CCCCC2)NC(=O)[C@H](CC(C)C)N(C)C(=O)C2(CCCC2)NC(=O)[C@@H]2CCCN2C(=O)[C@H](CCc2ccc(C(F)(F)F)c(F)c2)NC(=O)CN(C)C(=O)[C@H](CC2CCCCC2)N(C)C(=O)CN(C)C(=O)CN(C)C1=O [Compound 298] ([NMeL]I[Sar][Sar][NMeCha][Sar][hPhe(3-F,4-CF3)]P[Ac5c][NMeL]D-Piperidide; lactam N-11)",> 0.5 µM
11,CC[C@H](C)[C@@H]1NC(=O)[C@H](CCC(C)C)N(C)C(=O)C[C@@H](C(=O)N(C)C)N(C)C(=O)[C@H](C2CCCC2)N(C)C(=O)C2(CCCC2)NC(=O)[C@@H]2CCCN2C(=O)[C@H](CCc2ccc(C(F)(F)F)c(Cl)c2)NC(=O)CN(C)C(=O)[C@H](Cc2ccc(C)cc2)N(C)C(=O)[C@@H]2CCN2C(=O)[C@H](C)NC1=O [Compound 303] ([NMehLeu]IA[Aze][NMePhe(4-Me)][Sar][hPhe(3-Cl-4-CF3)]P[Ac5c][NMeGly(cPent)][NMeD]-NMe2; lactam N-11),≤ 0.02 µM
12,CC[C@H](C)[C@@H]1NC(=O)[C@H](CC(C)C)N(C)C(=O)C[C@@H](C)NC(=O)[C@H](C(C)C)N(C)C(=O)C2(CCCC2)NC(=O)[C@@H]2CCCN2C(=O)[C@H](CCc2ccc(C(F)(F)F)c(Cl)c2)NC(=O)CN(C)C(=O)[C@H](CC2CCCCC2)N(C)C(=O)CN(C)C(=O)CN(C(C)C)C1=O [Compound 305] (cyclo([Ac5c][NMeV][d(β3hA)][NMeL]I[N(iPr)Gly][Sar][NMeCha][Sar][hPhe(3-Cl-4-CF3)]P)),> 0.5 µM
13,"CC[C@H](C)[C@@H]1NC(=O)[C@H](CC(C)C)N(C)C(=O)C[C@@H](C(=O)N2CCCC2)N(C)C(=O)[C@H](CC(C)C)NC(=O)C(C)(C)N(C)C(=O)[C@H](CC(C)C)NC(=O)[C@H](CCc2ccc(C(F)(F)F)c(F)c2)NC(=O)CN(C)C(=O)[C@H](CC2CCCCC2)N(C)C(=O)CN(C)C(=O)CN(C)C1=O [Compound 312] ([NMeL]I[Sar][Sar][NMeCha][Sar][hPhe(3-F,4-CF3)]L[NMeAib]L[NMeD]-Pyrrolidide; lactam N-11)",> 0.5 µM
14,CC[C@H](C)[C@@H]1NC(=O)[C@H](CC(C)C)N(C)C(=O)C[C@@H](C(=O)N2CCCCC2)N(C)C(=O)[C@H](CC(C)C)NC(=O)C(C)(C)N(C)C(=O)[C@H](Cc2ccc(OC)cc2)NC(=O)[C@H](Cc2cccc(I)c2)NC(=O)CN(C)C(=O)[C@H](CC2CCCCC2)N(C)C(=O)CN(C)C(=O)CN(C)C1=O [Compound 320] ([NMeL]I[Sar][Sar][NMeCha][Sar][Phe(3-I)]Y(Me)[NMeAib]L[NMeD]-Piperidide; lactam N-11),> 0.5 µM
15,CC[C@H](C)[C@@H]1NC(=O)[C@H](CC(C)C)N(C)C(=O)C[C@@H](C(=O)N2CCCCC2)N(C)C(=O)[C@H](C(C)C)N(C)C(=O)C2(CCCC2)NC(=O)[C@@H]2CCCN2C(=O)[C@H](CCc2ccc(C(F)(F)F)c(Cl)c2)NC(=O)CN(C)C(=O)[C@H](CC2CC2)N(C)C(=O)CN(C)C(=O)CN(C)C1=O [Compound 325] ([NMeL]I[Sar][Sar][NMeAla(cPr)][Sar][hPhe(3-Cl-4-CF3)]P[Ac5c][NMeV][NMeD]-Piperidide; lactam N-11),> 0.5 µM
16,CCOCCN1CC(=O)N(C)CC(=O)N(C)[C@@H](CC2CCCCC2)C(=O)N(C)CC(=O)N[C@@H](CCc2ccc(C(F)(F)F)c(Cl)c2)C(=O)N2CCC[C@H]2C(=O)NC2(CCCC2)C(=O)N(C)[C@@H](C(C)C)C(=O)N[C@H](C)CC(=O)N(C)[C@@H](CC(C)C)C(=O)N[C@@H]([C@@H](C)CC)C1=O [Compound 329] (cyclo([Ac5c][NMeV][d(β3hA)][NMeL]I[Gly(N-(CH2)2OEt)][Sar][NMeCha][Sar][hPhe(3-Cl-4-CF3)]P)),> 0.5 µM
17,CC[C@H](C)[C@@H]1NC(=O)[C@H](CC(C)C)N(C)C(=O)C[C@@H](C(=O)N2CCCCC2)N(C)C(=O)[C@H](CC(C)C)NC(=O)C(C)(C)N(C)C(=O)[C@H](Cc2ccc(Cl)cc2)NC(=O)[C@H](Cc2cccc(I)c2)NC(=O)CN(C)C(=O)[C@H](CC2CCCCC2)N(C)C(=O)CN(C)C(=O)CN(C)C1=O [Compound 330] ([NMeL]I[Sar][Sar][NMeCha][Sar][Phe(3-I)][Phe(4-Cl)][NMeAib]L[NMeD]-Piperidide; lactam N-11),> 0.5 µM
18,CC[C@H](C)[C@@H]1NC(=O)[C@H](CC(C)C)N(C)C(=O)C[C@@H](C(=O)N2CCCCC2)N(C)C(=O)[C@H](CC(C)C)NC(=O)C(C)(C)N(C)C(=O)[C@H](Cc2ccccc2C)NC(=O)[C@H](Cc2cccc(I)c2)NC(=O)CN(C)C(=O)[C@H](Cc2ccc(C)cc2)N(C)C(=O)[C@@H]2CCN2C(=O)CN(C)C1=O [Compound 335] ([NMeL]I[Sar][Aze][NMePhe(4-Me)][Sar][Phe(3-I)][Phe(2-Me)][NMeAib]L[NMeD]-Piperidide; lactam N-11),> 0.5 µM
19,CC[C@H](C)[C@@H]1NC(=O)[C@H](CC(C)C)N(C)C(=O)C[C@@H](C(=O)N2CCCCC2)N(C)C(=O)[C@H](CC(C)C)NC(=O)C(C)(C)N(C)C(=O)[C@H](Cc2ccc(C(F)(F)F)cc2)NC(=O)[C@H](Cc2cccc(I)c2)NC(=O)CN(C)C(=O)[C@H](CC2CCCCC2)N(C)C(=O)CN(C)C(=O)CN(C)C1=O [Compound 336] ([NMeL]I[Sar][Sar][NMeCha][Sar][Phe(3-I)][Phe(4-CF3)][NMeAib]L[NMeD]-Piperidide; lactam N-11),> 0.5 µM
